Tests used:
[1] = system: C57BL6 mice, moderate contusion spinal cord injury (SCI) at T9-T10; test: Ladder rung walk test (LRWT) after moderate contusion SCI; assay type: in vivo, mouse; conditions: oral, twice daily starting at 4-dpi; at 13-dpi; vehicle-treated SCI mice 83%; N=5
Method: (§1) FIGS. 1A-C show the effects of boldine on locomotor functional recovery of C57BL6 mice after moderate spinal cord injury (SCI) at the interspace between thoracic vertebrae T9 and T10.
(§2) Function was determined by behavioral testing using both the Basso Mouse Scale (BMS) score (FIG. 1A) and the ladder rung walk test (LRWT) (FIG. 1B). While sham mice had normal BMS scores a few days after laminectomy, the BMS scores for contusion-SCI mice were much lower. […] (N=5; ANOVA *p<0.05 and **p<0.005 respectively).

IL-1β mRNA = test: Thalamus mRNA levels by qPCR after contusion SCI; assay type: in vivo, mouse
Method: (§3) FIGS. 2A-D show plots of mRNA levels of Cx43 (2A), NLRP3 (2B), ASC (2C), and caspase-1 (2D) in the hippocampus of sham mice and those having contusion spinal cord injury (SCI) with and without boldine treatment. mRNA levels in the hippocampus were determined by qPCR at 13 dpi using tissues from mice that underwent laminectomy (Sham) or moderate (50 kdyne) contusion SCI. ((*p<0.05 by one-way ANOVA, N=3 per group).
(§4) FIGS. 3A-B are plots showing that boldine normalizes spinal cord injury (SCI)-induced elevation of IL-1B mRNA levels in the thalamus. mRNA levels were determined as described with reference to FIG. 2. (A) IL-1β; (B) CCL2. (*p<0.05 by ANOVA, N=3).
(§5) In rats, a spinal cord injury (SCI) can result in cognitive deficits that are associated with activation in brain regions linked to pain processing and cognition of microglia and astrocytes as well as associated with upregulation of a gene involved in inflammation (Wu et al. 2013; Wu et al. 2014). Such changes may drive central pain in neuropathic pain syndromes. To determine whether boldine mitigates such changes, mRNA expression of Cx43 and genes involved in inflammasome assembly and activity were determined in mouse brains. While SCI increased caspase-1 in the hippocampus. […] These studies indicate that boldine can reduce neuropathic pain following spinal cord injury (SCI) associated with reductions in brain and spinal cord of expression of pro-inflammatory cytokines and chemokines linked to pathological pain.

CCL2 mRNA = test: Thalamus mRNA levels by qPCR after contusion SCI; assay type: in vivo, mouse; conditions: compared to vehicle-treated animals after contusion SCI; FIG. 3 (thalamus); N=3
Method: as §3, §4, §5

[2] = system: neurite outgrowth marker GAP-43; test: Immunofluorescence staining of injured spinal cords; assay type: in vivo, mouse; conditions: injured spinal cord transverse sections, SCI mice at 14-dpi, vs vehicle
Method: Immunofluorescence staining was performed on injured spinal cords of vehicle and boldine treated SCI mice at 14-dpi. 30-micron transverse sections were used to evaluate differences in the labeling of the neurite outgrowth marker GAP-43.

[3] = system: CCL2 mRNA in LPS astrocytes; test: mRNA expression after LPS-induced inflammatory response in astrocytic primary cell cultures; assay type: cell-based; conditions: compared to vehicle-treated LPS astrocytes
Method: To model effects of boldine on release of chemokines and other mediators, changes in mRNA expression after lipopolysaccharide (LPS)-induced inflammatory responses were analyzed using astrocytic primary cell cultures.

caspase-1 mRNA = test: Hippocampus mRNA levels by qPCR after contusion SCI; assay type: in vivo, mouse; conditions: contusion SCI mice, 13 dpi, N=3
Method: as §3, §5

Ccl2 = test: Chemokine gene expression in spinal cord tissue of SCI mice; assay type: in vivo, mouse; conditions: C57B6 SCI animals at 14-dpi, vs vehicle; N=3, ANOVA p=0.091
Method: (§6) Additional studies were performed using tissues harvested from the mice for which behavioral testing data showing effects of boldine on Basso Mouse Scale and ladder rung walk test were collected. RNA-seq analysis was performed on spinal cord segments from SCI mice at 14-dpi treated with boldine or vehicle starting at 4-dpi (N=3 for each). Differentially expressed genes (DEGs) were clustered by their gene ontology (GO) and enrichment of GO terms was tested using a Fisher's exact test (GeneSCF v1.1-p2). Enriched DEGs were involved in pathways related to neutrophil activation and aggregation, inflammatory responses and astrocyte development.
(§7) Genes from a list of the top DEGs from the RNA-seq analysis were considered and tested for differences in gene expression of pro-inflammatory chemokines Ccl2 and Ccl3 between vehicle and boldine treated spinal cord tissues from C57B6 SCI animals at 14-dpi. Laminectomy-only (Sham) animals as were used as controls.

Ccl3 = test: as above; assay type: in vivo, mouse; conditions: C57B6 SCI animals at 14-dpi, vs vehicle; N=3, ANOVA p=0.085
Method: as §6, §7

[4] = system: C57BL6 mice, moderate contusion spinal cord injury (SCI) at T9-T10; test: Basso Mouse Scale (BMS) open-field locomotor function after moderate contusion SCI; assay type: in vivo; conditions: oral, twice daily starting at 4-dpi; at 13 dpi; vs vehicle-treated SCI mice; N=5
Method: as §1, §2

COc1cc2c(cc1O)CC1c3c(cc(O)c(OC)c3-2)CCN1C (racemic) [boldine]
LRWT incorrect steps [1]: 13%
reduction of mRNA levels of IL-10 (IL-1β mRNA; compared to vehicle-treated animals after contusion SCI, FIG. 3 (thalamus), N=3): 65.5%
SCI-induced elevation of IL-1B mRNA levels in the thalamus (IL-1β mRNA; contusion SCI mice, qPCR, N=3 (FIG. 3 legend)): normalizes
reduction of mRNA levels of CCL2 (CCL2 mRNA): 47.2%
GAP43 immunofluorescence [2]: dramatically increased
reduction of mRNA levels of CCL2 [3]: 38%
SCI-induced increase of caspase-1 mRNA in the hippocampus (caspase-1 mRNA): appeared to be corrected
Ccl2 gene expression in spinal cord tissue (Ccl2): apparent decrease which did not reach our threshold for significance
Ccl3 gene expression in spinal cord tissue (Ccl3): apparent decrease which did not reach our threshold for significance
BMS scores [4]: significantly increased

From patent US12246012B2, “Method for treating nervous system injuries using boldine and derivatives thereof” (United States Government as Represented by the Department …, priority 2020, dated 2025)
